Target: T1, hM4Di (Homo sapiens, UniProt P08173, A203G/Y113C)
T1 sequence (P08173 1-479 Y113C/A203G): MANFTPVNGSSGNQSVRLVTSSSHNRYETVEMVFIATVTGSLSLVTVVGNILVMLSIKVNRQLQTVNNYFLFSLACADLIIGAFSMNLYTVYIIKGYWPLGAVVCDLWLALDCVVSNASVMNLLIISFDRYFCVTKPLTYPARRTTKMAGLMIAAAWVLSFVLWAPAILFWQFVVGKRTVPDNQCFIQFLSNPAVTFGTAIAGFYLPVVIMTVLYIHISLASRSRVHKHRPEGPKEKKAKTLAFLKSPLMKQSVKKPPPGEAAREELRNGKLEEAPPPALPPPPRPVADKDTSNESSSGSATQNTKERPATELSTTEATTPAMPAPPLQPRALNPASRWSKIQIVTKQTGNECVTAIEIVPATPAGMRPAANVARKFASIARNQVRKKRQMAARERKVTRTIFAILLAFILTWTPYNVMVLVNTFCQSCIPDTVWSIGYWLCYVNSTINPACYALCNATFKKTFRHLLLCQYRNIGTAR
Assay: DREADD-assisted metabolic mapping (DREAMM), [18F]FDG PET in D1-hM4Di mice
Assay type: in vivo, mouse
Parameters: 026219; host or cells: mouse brain, dopamine D1 receptor-expressing neurons (transgene)
Conditions: 0.1 mg kg-1 IP
Protocol: Mice (D1-hM3Dq, D1-hM4Di or WT littermates, see above) were habituated to experimenter handling and fasted 16 h before the experiment. On the day of the experiment, mice received an IP injection of vehicle (1 ml kg^−1) and were placed back into their home cages. Ten minutes later, mice were injected (IP) with 11 MBq of 2-deoxy-2-[^18F]fluoro-D-glucose (FDG, Cardinal Health) and placed back into their home cages. After 30 min, mice were anesthetized with 1.5% isoflurane, placed on a custom-made bed of a nanoScan small animal PET/CT scanner (Mediso Medical Imaging Systems) and scanned for 20 min on a static acquisition protocol, followed by a CT scan. […] Voxel-based repeated measures with Student’s t test comparing baseline to drug were performed, and the resulting parametric images were filtered for statistically significant (p < 0.05) clusters larger than 100 contiguous voxels. All statistical parametric mapping analyses were performed using Matlab R2016 (Mathworks) and SPM12 (University College London).

How did the “brain metabolism ([18F]FDG)” value turn out when `CCN1CCN(C2=Nc3cc(Cl)ccc3Nc3c(F)cccc32)CC1` [JHU37160, 8-Chloro-11-(4-ethylpiperazin-1-yl)-4-fluoro-5H-dibenzo[b,e][1,4]diazepine] was run?
The value was “increased metabolism”.

Reference: article PMC6788984, “High-potency ligands for DREADD imaging and activation in rodents and monkeys” (Nature Communications, 2019)
